What follows are compounds tested against Disintegrin and metalloproteinase domain-containing protein 17 (Homo sapiens, UniProt P78536) (assay: ADAM17 protease inhibitors, dose response, counter-screen for ADAM10 exosite inhibitor project, biochemical, quenched FRET substrate (AID 743253)).
Chain of Disintegrin and metalloproteinase domain-containing protein 17 (P78536 whole entry, the tested form may be a part): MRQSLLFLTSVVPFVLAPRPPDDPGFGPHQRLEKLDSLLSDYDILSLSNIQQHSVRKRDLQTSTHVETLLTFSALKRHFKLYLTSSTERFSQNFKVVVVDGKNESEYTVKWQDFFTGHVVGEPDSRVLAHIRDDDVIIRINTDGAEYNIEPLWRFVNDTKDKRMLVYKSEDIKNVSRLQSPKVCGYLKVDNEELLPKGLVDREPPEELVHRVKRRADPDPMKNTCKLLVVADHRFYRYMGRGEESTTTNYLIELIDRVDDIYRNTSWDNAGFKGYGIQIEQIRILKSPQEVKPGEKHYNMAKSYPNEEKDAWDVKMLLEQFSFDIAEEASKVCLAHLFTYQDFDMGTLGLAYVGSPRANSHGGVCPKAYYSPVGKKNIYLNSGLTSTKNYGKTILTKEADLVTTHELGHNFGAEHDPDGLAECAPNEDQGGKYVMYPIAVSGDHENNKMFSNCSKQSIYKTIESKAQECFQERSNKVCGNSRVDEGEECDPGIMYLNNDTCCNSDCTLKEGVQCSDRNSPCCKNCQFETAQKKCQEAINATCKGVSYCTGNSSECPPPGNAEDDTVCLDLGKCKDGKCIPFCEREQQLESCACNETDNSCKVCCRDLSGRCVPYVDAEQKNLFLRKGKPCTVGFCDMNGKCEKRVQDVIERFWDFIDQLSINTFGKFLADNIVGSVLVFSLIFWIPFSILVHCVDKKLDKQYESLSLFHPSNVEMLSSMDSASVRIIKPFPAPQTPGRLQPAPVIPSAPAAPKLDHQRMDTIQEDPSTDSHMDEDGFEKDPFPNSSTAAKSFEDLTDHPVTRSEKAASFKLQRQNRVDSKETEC
Compound N#CCSc1nc2cc(C(=O)N3CCC(C(N)=O)CC3)ccc2c2nc3ccccc3n12 [1-({6-[(cyanomethyl)thio]benzimidazo[1,2-c]quinazolin-3-yl}carbonyl)piperidine-4-carboxamide] has an IC50 of 69.6 µM. In the case of COc1ccc(N2C(=O)NC(=O)C(=Cc3c[nH]c4ccc(Br)cc34)C2=O)c(OC)c1 [(5E)-5-[(5-bromo-1H-indol-3-yl)methylene]-1-(2,4-dimethoxyphenyl)pyrimidine-2,4,6(1H,3H,5H)-trione], the IC50 is reported as 12 µM. O=C1C=CC([N+](=O)[O-])=CC1CN=Nc1ccccn1 (stereo not drawn) [MLS000585015] showed an IC50 of 9.75 µM.

Reference: BindingDB's records for doi:10.7270/Q2DV1HJQ (The Scripps Research Institute Molecular Screening Center, 2014)
